Reference: ChEMBL document CHEMBL1142083, “Reversible inhibition of mitochondrial protein synthesis during linezolid-related hyperlactatemia” (2007)

Assays:
PBMC [1] = assay: Decrease in mitochondrial Cytochrome C oxidase 2 protein expression in PBMCs from patient on a long-term schedule of the drug with hyperlactatemia relative to control; format: functional, Homo sapiens; parameters: scale not given: the % may be the effect or the level left
PBMC [2] = assay: Effect on mitochondrial mass in PBMCs from patient during hyperlactemic phase by citrate synthase method relative to control; format: functional, Homo sapiens
PBMC [3] = assay: Increase in Cytochrome C oxidase 2 mitochondrial RNA transcripts in PBMCs from patient on a long-term schedule of the drug with hyperlactatemia relative to control; format: functional, Homo sapiens
PBMC [4] = assay: Effect on mitochondrial DNA level in PBMCs from patient on a long-term schedule of the drug with hyperlactatemia relative to control; format: functional, Homo sapiens
PBMC [5] = assay: Decrease in mitochondrial Cytochrome C oxidase activity in PBMCs from patient on a long-term schedule of the drug with hyperlactatemia relative to control; parameters: scale not given: the % may be the effect or the level left
PBMC [6] = assay: Effect on mitochondrial mass in PBMCs from patient during hyperlactemic phase by V-DAC method relative to control; format: functional, Homo sapiens

Molecule CC(=O)NC[C@H]1CN(c2ccc(N3CCOCC3)c(F)c2)C(=O)O1 [LINEZOLID] has an Activity (PBMC [1]) of 16%, an Activity (PBMC [2]) of 59% and an Activity (PBMC [3]) of 297%. The Activity (PBMC [4]) was 82%, the Activity (PBMC [5]) was 51% and the Activity (PBMC [6]) was 60%.
